IC50 data for one compound are collected here from patent publication US20100048548A1, “IMINO-OXAZOLIDINES AND USE THEREOF” (Bayer HealthCare AG, priority 2005, published 2010).

In one assay the test system is trypsin. The assay can be described thus: Determination of the selectivity: trypsin inhibition (chromogenic substrate). To be noted: trypsin 500 mU/ml, Chromozym Trypsin, 37° C., pH 8.0. It counts as biochemical, human. The method, then:
(§1) To assess selective FXa inhibition, the test substances are examined for their inhibition of other human serine proteases such as trypsin and plasmin. To determine the enzymatic activity of trypsin (500 mU/ml) and plasmin (3.2 nmol/l), these enzymes are dissolved in Tris buffer (100 mmol/l, 20 mmol/l CaCl2, pH=8.0) and incubated with test substance or solvent for 10 minutes. The enzymatic reaction is then started by adding the corresponding specific chromogenic substrates (Chromozym Trypsin® and Chromozym Plasmin®; from Roche Diagnostics) and the extinction at 405 nm is determined after 20 minutes. All determinations are carried out at 37° C.

A further assay has as its target T1, plasmin (Homo sapiens, UniProt P00747).
T1 construct: To determine the enzymatic activity of trypsin (500 mU/ml) and plasmin (3.2 nmol/l)
The assay can be described thus: Determination of the selectivity: plasmin inhibition (chromogenic substrate). It counts as biochemical. To be noted: plasmin 3.2 nmol/l, Chromozym Plasmin, 37° C., pH 8.0. On the procedure: as §1

For another assay, the target named is T2, human factor Xa (FXa) (Homo sapiens, UniProt P00742).
T2 construct: factor Xa, which is formed from the proenzyme factor X
The assay can be described thus: Determination of the factor Xa inhibition (chromogenic substrate). It counts as biochemical. To be noted: human FXa 0.5 nmol/l, Pefachrome FXa 150 μmol/l, 25° C., pH 8.3. The method, then:
The enzymatic inhibition of human factor Xa (FXa) is measured using the conversion of a chromogenic substrate specific for FXa. Factor Xa cleaves p-nitroaniline from the chromogenic substrate. The determinations are carried out in microtitre plates as follows:
The test substances, in various concentrations, are dissolved in DMSO and incubated for 10 minutes at 25° C. with human FXa (0.5 nmol/l dissolved in 50 mmol/l of Tris buffer [C,C,C-tris(hydroxymethyl)aminomethane], 150 mmol/l of NaCl, 0.1% BSA [bovine serum albumin], pH=8.3). Pure DMSO is used as control. The chromogenic substrate (150 μmol/l Pefachrome® FXa from Pentapharm) is then added. After an incubation time of 20 minutes at 25° C., the extinction at 405 nm is determined.

SMILES strings stand for the structures.

T1 sequence (P00747 581-810 limits assumed): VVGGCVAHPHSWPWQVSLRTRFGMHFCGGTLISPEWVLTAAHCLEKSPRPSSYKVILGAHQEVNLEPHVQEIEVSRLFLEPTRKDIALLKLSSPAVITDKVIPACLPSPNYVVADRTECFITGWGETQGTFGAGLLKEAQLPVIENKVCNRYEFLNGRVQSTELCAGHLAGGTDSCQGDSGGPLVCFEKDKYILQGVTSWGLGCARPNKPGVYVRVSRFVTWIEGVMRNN
T1 sequence (P00747 97-580 partner limits assumed): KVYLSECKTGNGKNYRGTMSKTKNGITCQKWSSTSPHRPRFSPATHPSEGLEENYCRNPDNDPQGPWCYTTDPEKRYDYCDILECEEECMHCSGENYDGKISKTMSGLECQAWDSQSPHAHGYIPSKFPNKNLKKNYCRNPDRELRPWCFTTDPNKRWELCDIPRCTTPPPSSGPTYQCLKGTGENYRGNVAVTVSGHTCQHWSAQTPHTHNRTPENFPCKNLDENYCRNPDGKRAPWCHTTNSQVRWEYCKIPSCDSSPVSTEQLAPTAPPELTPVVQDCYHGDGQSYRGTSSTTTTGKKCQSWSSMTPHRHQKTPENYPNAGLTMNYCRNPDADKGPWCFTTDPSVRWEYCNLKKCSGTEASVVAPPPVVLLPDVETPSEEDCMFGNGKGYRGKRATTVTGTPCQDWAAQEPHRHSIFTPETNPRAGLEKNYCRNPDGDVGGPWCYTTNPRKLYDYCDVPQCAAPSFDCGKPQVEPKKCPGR
T2 sequence (P00742 235-488 limits assumed): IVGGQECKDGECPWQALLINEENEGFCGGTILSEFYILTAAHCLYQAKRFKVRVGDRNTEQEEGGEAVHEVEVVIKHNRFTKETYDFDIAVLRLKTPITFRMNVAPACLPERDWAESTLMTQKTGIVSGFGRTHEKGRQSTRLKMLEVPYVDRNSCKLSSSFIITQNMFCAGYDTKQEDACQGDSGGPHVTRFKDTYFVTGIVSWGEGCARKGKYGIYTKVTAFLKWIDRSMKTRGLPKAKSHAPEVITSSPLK
T2 sequence (P00742 41-179 partner limits assumed): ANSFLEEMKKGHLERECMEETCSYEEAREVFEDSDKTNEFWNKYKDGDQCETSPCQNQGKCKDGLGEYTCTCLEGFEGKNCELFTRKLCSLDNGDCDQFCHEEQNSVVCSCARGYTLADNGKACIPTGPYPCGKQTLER

Usually IC50 stands for the concentration needed to halve the response being measured. Regarding `N=C1O[C@@H](CNC(=O)c2ccc(Cl)s2)CN1c1ccc(N2CCOCC2=O)cc1` [Example 1, 5-Chloro-N-({(5S)-2-imino-3-[4-(3-oxomorpholin-4-yl)phenyl]-1,3-oxazolidin-5-yl}methyl)-thiophene-2-carboxamide], the values for the half-inhibitory concentration (IC50) in the assay on trypsin, at plasmin and on human factor Xa (FXa) were > 10 µM, > 10 µM and 0.0054 µM, respectively.
